Reference: ChEMBL document CHEMBL1201862, “PubChem BioAssay data set” (2004)
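Dose response: 5 concentrations. Exposure: 48 h. Format: 96-well plates. Endpoint: linear interpolation; highest concentration if not reached. GI50 is the concentration that inhibits growth by half.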 Active and inactive are the calls of the source. Rule as the data show it: active = GI50 up to about 1.1 µM and inactive = higher.

How the values were obtained:
Assay in all cases: NCI anticancer screen, dose series, 48 h
KM-20L2 = system: KM-20L2
LXFL 529 = system: LXFL 529
SNB-78 = system: SNB-78
XF498 = system: XF498
DMS-114 = system: DMS-114
DMS-273 = system: DMS-273
HOP-18 = system: HOP-18
RXF 631 = system: RXF 631
BT-549 = system: BT-549

| Compound | GI50 (KM-20L2) | GI50 (LXFL 529) | GI50 (SNB-78) | GI50 (XF498) | GI50 (DMS-114) | GI50 (DMS-273) | GI50 (HOP-18) | GI50 (RXF 631) | GI50 (BT-549) |
| --- | --- | --- | --- | --- | --- | --- | --- | --- | --- |
| COc1cc(/C=C2/C(=O)N(C(=O)c3ccc(Cl)cc3)N=C2C)cc(OC)c1OC | > 100 µM (inactive) | > 100 µM (inactive) | > 100 µM (inactive) | > 100 µM (inactive) |  |  |  |  |  |
| CC1=CC2=C(C)C3(CC3)[C@@](C)(O)C(=O)C2=C1 | 0.213 µM (active) | 0.223 µM (active) | 0.274 µM (active) | 0.17 µM (active) | 0.139 µM (active) | 0.189 µM (active) | 0.27 µM (active) |  |  |
| COc1cc(/C=C(\C)c2ccc3c(c2)OCO3)cc(OC)c1OC | 32.4 µM (inactive) | 14.7 µM (inactive) | 37.9 µM (inactive) |  | 25.1 µM (inactive) | 26 µM (inactive) | 64 µM (inactive) | 28.6 µM (inactive) |  |
| COc1cc(/C=C(\C#N)c2nc3ccccc3o2)ccc1O |  |  |  |  |  |  |  |  | 16.1 µM (inactive) |
| O=C1CCC(NC(=O)c2ccccc2)C(=O)N1 (centres undefined) |  |  |  |  |  |  |  |  | > 100 µM (inactive) |
| COC1=C(N)C(=O)c2nc(C)ccc2C1=O | 2.3 µM (inactive) | 2.43 µM (inactive) | 3.52 µM (inactive) | 1.51 µM (inactive) | 1.78 µM (inactive) | 1.83 µM (inactive) | 1.98 µM (inactive) |  |  |
| CCc1nc2cc3cccnc3c(Cl)c2[nH]c1=O |  |  |  |  |  |  |  |  | 65.9 µM (inactive) |
| CN(C)CCNC(=O)c1cccc2ccc(-c3ccc(Br)cc3)nc12 | 1.78 µM (inactive) |  | 8.87 µM (inactive) | 2.16 µM (inactive) | 2.61 µM (inactive) | 1.16 µM (inactive) | 1.91 µM (inactive) |  |  |
| C/C(=N\NC(=S)N1CCN(C2CCCCCC2)CC1)c1ccccn1 | 0.01 µM (active) | 0.001 µM (active) | 2.78 µM (inactive) |  | 0.01 µM (active) | 0.01 µM (active) | 2.06 µM (inactive) |  | 1.27 µM (inactive) |
| Cc1c(-c2ccccc2)[nH]c2cc(Cl)ccc2c1=O |  |  |  |  |  |  |  |  | > 100 µM (inactive) |
| CN1C(C)(C)CC(=O)C(Br)C1(C)C (centres undefined) |  |  |  |  |  |  |  |  | > 100 µM (inactive) |
| CCN(CC)C(=O)CCN1CC1 |  |  |  |  |  |  |  |  | > 10 µM (inactive) |
| O=C1OC2C(O)COC2(O)C1(O)Cc1c[nH]c2ccccc12.O=C1OC2C(O)COC2(OCc2c[nH]c3ccccc23)C1O (centres undefined) | > 100 µM (inactive) | > 100 µM (inactive) | > 100 µM (inactive) | > 100 µM (inactive) | > 100 µM (inactive) | > 100 µM (inactive) | > 100 µM (inactive) |  |  |
| COC(O)C(=O)c1c2c(cc3c1CCC3)CCCC2 (centres undefined) |  |  |  |  |  |  |  |  | 2.39 µM (inactive) |
| Cn1c2ccc(C3=NCCN3)cc2c2cc(C3=NCCN3)ccc21 |  |  |  |  |  |  |  |  | > 100 µM (inactive) |
| CCc1cccc(C)c1NC(=O)CC1C(=O)Nc2ccccc2S1(=O)=O (centres undefined) | 18.5 µM (inactive) | 16.7 µM (inactive) | 21.1 µM (inactive) | 12.5 µM (inactive) | 16.8 µM (inactive) | 7.01 µM (inactive) |  | 14.2 µM (inactive) |  |
| c1cc2c(s1)-c1sccc1C21OCCO1 |  |  |  |  |  |  |  |  | 50.5 µM (inactive) |
| Cc1nc2ccccc2n1Cc1nnc2n1N=C(c1ccccc1)CS2 |  |  |  |  |  |  |  |  | 32.1 µM (inactive) |
| COC(=O)CCC(NC(=S)N/N=C(\C)c1cccs1)C(=O)OC (centres undefined) | > 100 µM (inactive) | > 100 µM (inactive) | > 100 µM (inactive) | > 100 µM (inactive) | > 100 µM (inactive) | > 100 µM (inactive) | > 100 µM (inactive) |  |  |
| COc1ccc2nc3c([N+](=O)[O-])ccc4c3c(c2c1)N=CN4CCCN(C)C |  |  |  |  |  |  |  |  | 8.22 µM (inactive) |
| Cc1nc2ccccc2c(=O)n1/N=C(\N=N\c1ccccc1Cl)c1ccccc1Cl | 76.7 µM (inactive) | 52.1 µM (inactive) |  | 11.9 µM (inactive) | 26.4 µM (inactive) | 44.8 µM (inactive) | 28 µM (inactive) | 88.9 µM (inactive) |  |
| Cc1nc2c(s/c(=N\N)n2-c2ccccc2)c(=O)[nH]1 | > 100 µM (inactive) | > 100 µM (inactive) | > 100 µM (inactive) | > 100 µM (inactive) | > 100 µM (inactive) | > 100 µM (inactive) |  |  |  |
| COc1ccc(Nc2nc(N)c(C(=O)c3cccs3)s2)cc1 |  |  |  |  |  |  |  |  | 23.3 µM (inactive) |
| Oc1cc(Cl)cc2cccnc12 |  |  |  |  |  |  |  |  | 3.89 µM (inactive) |
| Cc1ccc(CN2CCN(Cc3ccc(C)o3)C(C)C2)o1 (centres undefined) |  |  |  |  |  |  |  |  | > 100 µM (inactive) |
| O=C(NO)C(=O)Nc1ccc(Cl)cc1[N+](=O)[O-] | > 100 µM (inactive) | > 100 µM (inactive) | > 100 µM (inactive) |  | > 100 µM (inactive) | > 100 µM (inactive) | > 100 µM (inactive) | > 100 µM (inactive) |  |
| COc1ccc(C2C=C(c3ccc(C)cc3)N(c3ccc(OC)cc3[N+](=O)[O-])C3C(=O)OC(=O)C23)c(OC)c1 (centres undefined) |  |  |  |  |  |  |  |  | 53.3 µM (inactive) |
